Patent US7371734B2, “Oligonucleotide compositions and their use for the modulation of immune responses” (Bioniche Life Sciences Inc., priority 2002, dated 2008)
Marks after values point to notes of the source that are not given here.

How the values were obtained:
[1] = test system: Human dendritic cells; test: Increase in cell size and granularity of DC (flow cytometry); format: cell-based; settings: 100 μg polynucleotide, 48 hours
Outline: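 Human dendritic cells from three donors, seeded at 1.0×10^5 cells/ml and exposed 48 hours to 100 μg of 6-base 3-OH, 5-OH polynucleotides. Flow cytometry; percentage of cells with forward scatter >500 units and side scatter >400 units.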

[2] = test system: Human dendritic cells; test: Induction of IFN-gamma production by DC (ELISA); format: cell-based; settings: 100 μg, 48 hours
Outline: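 Dendritic cells from three donors (1.0×10^5 cells/ml) were incubated 48 h with 100 μg of each polynucleotide. IFN-gamma in culture supernatant was measured by ELISA. Values are fold increase over untreated control cells.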

[3] = test system: Human dendritic cells; test: OX-2 levels at the DC cell surface (flow cytometry); format: cell-based; settings: DC from individual A, 48 hours
Method: (§1) Human dendritic cells were obtained from Clonetics (San Diego, Calif., USA) and were cultured in the medium recommended by Clonetics. DC were obtained from three different individuals (see Table 1). Major histocompatability typing was performed on each of these individuals and several of the HLA (human leukocyte antigens) types are shown.
DC from individual A were seeded in 1.0 ml at 1.0×10^5 cells/ml in 6-well flat-bottomed tissue culture plates for 48 hours with 1, 10 or 100 μg of 6 base N3A or N6A polynucleotides. The level of OX-2 at the cell surface was determined after 48 hours of incubation by flow cytometry using a FITC-conjugated monoclonal antibody directed to OX-2 (BioSPARK, Greenwich, Conn., USA) and analyzed by CELLQuest Pro. […] Results are expressed as the percentage of OX-2^hi DC following treatment.

[4] = test system: female BALB/C mice; test: Oral vaccination with hepatitis surface antigen, anti-HbsAg ELISA; format: in vivo; settings: oral day 0, 7, 14, 450 nm; for IgA total at 1:2 dilution, mean ± SD: gut washes day 21; for Total IgG at 1:32 dilution, mean ± SD: plasma day 21
Method: Immunization with recombinant hepatitis B surface antigen combined with N6A or N6B polynucleotide was conducted on 6-8 week old female BALB/C mice (Charles River, St-Constant, Qc, Canada). Each mouse (5 mice per group) has received orally a solution containing: Saline (Group 1), HbsAg 10 μg (Group 2), HbsAg 10 μg+N6A 1 μg (Group 3), HbsAg 10 μg+N6A 10 μg (Group 4), HbsAg 10 μg+N6A 100 μg (Group 5), HbsAg 10 μg+N6B 1 μg (Group 6), HbsAg 10 μg+N6B 10 μg (Group 7) and HbsAg 10 μg+N6B 100 μg (Group 8) in a total volume of 50 μl at day 0, 7 and day 14. Plasma and gut washes were recovered at day 21. Gut washes (for IgA determination) were obtained by gently pipetting 0.2 ml of PBS containing protease inhibitors (10 μg pepstatin, 10 μg leupeptin, 10 μg antipain and 50 μg benzamidine).
Antibodies specific to HbsAg were detected and quantified by ELISA. Briefly, a solid phase of HbsAg protein (1.0 μg per well, overnight at 4° C.) was used to capture anti-HbsAg in the plasma or in the gut washes (1 hour at 37° C.), which were then detected with horseradish peroxidase-conjugated goat anti-mouse IgA (for gut washes) and goat anti-mouse total IgG (for plasma) following the instructions of the manufacturer (Clonetyping system, Southern Biotechnology Inc.). Data are expressed in Table 14 in OD (450 nm) as the mean±SD of 5 mice per group. […]

[5] = test system: Human dendritic cells; test: Endocytosis of FITC-dextran by DC; format: cell-based; settings: DC from individual B, 100 μg, 24 hours, untreated control = 100
Method: as §1
DC from individual B were seeded in 1.0 ml at 1.0×10^5 cells/ml in 6-well flat-bottomed tissue culture plates for 24 hours with 1 mg/ml of FITC-dextran (20 kDa; Sigma-Aldrich) in the absence or presence of 100 μg of 6 base N2A, N2B, N3A, N3B, N5A, N5B, and N6B polynucleotides at 4° C. (control cell surface binding of FITC-dextran) and 37° C. (to assess endocytosis). Cells were washed three times with ice-cold phosphate buffered saline and analyzed by flow cytometry using CELLQuest Pro. Results are expressed as relative endocytic rate (normalized Δ Mean Fluorescence Value (Δ MFV)). Δ MFV=MFV of DC exposed to FITC-dextran at 37° C.−MFV of DC exposed to FITC-dextran at 4° C. Δ MFV=(ΔMFVsequence/ΔMFVcontrol)×100.

[6] = HbsAg 10 μg + polynucleotide 1 μg
[7] = HbsAg 10 μg + polynucleotide 10 μg
[8] = HbsAg 10 μg + polynucleotide 100 μg

5′GGGAGG3′ [N6A] (unmodified DNA)
Percentage of DC showing a FCS > 500 units and a SSC > 400 units ([1]; DC isolated from individual A): 9%
Percentage of DC showing a FCS > 500 units and a SSC > 400 units ([1]; DC isolated from individual B): 22%
Percentage of DC showing a FCS > 500 units and a SSC > 400 units ([1]; DC isolated from individual C): 21%
IFN-gamma production by DC (fold increase compared to untreated DC) ([2]; DC isolated from individual A): 1.0 fold
IFN-gamma production by DC (fold increase compared to untreated DC) ([2]; DC isolated from individual B): 1.0 fold
IFN-gamma production by DC (fold increase compared to untreated DC) ([2]; DC isolated from individual C): 1.0 fold
The percentage of OX-2^hi DC following treatment ([3]; 1.0 μg): 64%
The percentage of OX-2^hi DC following treatment ([3]; 10.0 μg): 62%
The percentage of OX-2^hi DC following treatment ([3]; 100.0 μg): 64%
IgA total at 1:2 dilution, mean ± SD [4, 6]: 0.662 ± 0.166 OD
Total IgG at 1:32 dilution, mean ± SD [4, 6]: 0.138 ± 0.055 OD
IgA total at 1:2 dilution, mean ± SD [4, 7]: 0.853 ± 0.543 OD
Total IgG at 1:32 dilution, mean ± SD [4, 7]: 0.141 ± 0.044 OD
IgA total at 1:2 dilution, mean ± SD [4, 8]: 0.650 ± 0.276 OD
Total IgG at 1:32 dilution, mean ± SD [4, 8]: 0.121 ± 0.055 OD

5′GGGAGG3′ [N6B] (DNA, backbone not given here; further chemistry not fully specified)
Percentage of DC showing a FCS > 500 units and a SSC > 400 units ([1]; DC isolated from individual A): 4%
Percentage of DC showing a FCS > 500 units and a SSC > 400 units ([1]; DC isolated from individual B): 17%
Percentage of DC showing a FCS > 500 units and a SSC > 400 units ([1]; DC isolated from individual C): 36%
IFN-gamma production by DC (fold increase compared to untreated DC) ([2]; DC isolated from individual A): 1.1 fold
IFN-gamma production by DC (fold increase compared to untreated DC) ([2]; DC isolated from individual B): 1.0 fold
IFN-gamma production by DC (fold increase compared to untreated DC) ([2]; DC isolated from individual C): 1.1 fold
Relative endocytic rate (normalized Δ MFV) [5]: 23
IgA total at 1:2 dilution, mean ± SD [4, 6]: 0.549 ± 0.242 OD
Total IgG at 1:32 dilution, mean ± SD [4, 6]: 0.104 ± 0.030 OD
IgA total at 1:2 dilution, mean ± SD [4, 7]: 0.333 ± 0.156 OD
Total IgG at 1:32 dilution, mean ± SD [4, 7]: 0.225 ± 0.135 OD
IgA total at 1:2 dilution, mean ± SD [4, 8]: 0.492 ± 0.074 OD
Total IgG at 1:32 dilution, mean ± SD [4, 8]: 0.120 ± 0.057 OD

5′GGGTGG3′ [N3A]
Percentage of DC showing a FCS > 500 units and a SSC > 400 units ([1]; DC isolated from individual A): 8%
Percentage of DC showing a FCS > 500 units and a SSC > 400 units ([1]; DC isolated from individual B): 15%
Percentage of DC showing a FCS > 500 units and a SSC > 400 units ([1]; DC isolated from individual C): 31%
IFN-gamma production by DC (fold increase compared to untreated DC) ([2]; DC isolated from individual A): 1.0 fold
IFN-gamma production by DC (fold increase compared to untreated DC) ([2]; DC isolated from individual B): 1.0 fold
IFN-gamma production by DC (fold increase compared to untreated DC) ([2]; DC isolated from individual C): 1.0 fold
The percentage of OX-2^hi DC following treatment ([3]; 1.0 μg): 61%
The percentage of OX-2^hi DC following treatment ([3]; 10.0 μg): 51** %
The percentage of OX-2^hi DC following treatment ([3]; 100.0 μg): 51** %
Relative endocytic rate (normalized Δ MFV) [5]: 156

5′GGGTGG3′ [N3B]
Percentage of DC showing a FCS > 500 units and a SSC > 400 units ([1]; DC isolated from individual A): 28%
Percentage of DC showing a FCS > 500 units and a SSC > 400 units ([1]; DC isolated from individual B): 25%
Percentage of DC showing a FCS > 500 units and a SSC > 400 units ([1]; DC isolated from individual C): 28%
IFN-gamma production by DC (fold increase compared to untreated DC) ([2]; DC isolated from individual A): 2.0 fold
IFN-gamma production by DC (fold increase compared to untreated DC) ([2]; DC isolated from individual B): 4.5 fold
IFN-gamma production by DC (fold increase compared to untreated DC) ([2]; DC isolated from individual C): 1.3 fold
Relative endocytic rate (normalized Δ MFV) [5]: 211
